# Laboratory results as given in patent US7612079B2, “2,6,9-substituted purine derivatives and their use in the treatment of proliferative disorders” (Cyclacel Limited, priority 2001, dated 2009).
# “And” between values parts separate entries of the source, which are not always exact repeats. Equal entries are not always repeated.
# Legend:
# [1] = Metabolic carbinol-carboxyl oxidation; details: remark in Table 1
# A2780 CisR = assay: 72-h MTT proliferation assay, A2780 CisR; format: cell-based; details: Homo sapiens, A2780cisR, read-out: IC50 Cell line A2780 CisR
# Excerpt: (§1) Selected compounds from the above examples were subjected to a standard cellular proliferation assay using seven different human tumour cell lines: A2780, A278CisF, CH1, CH1DoxR, HCT116, HT29 and KM12. […] Human tumour cell lines were obtained from the ATCC (American Type Culture Collection, 10801 University Boulevard, Manessas, Va. 20110-2209, USA). The results are shown in Table 1, together with the average IC50 over the seven different cell lines.
# CH1DoxR = assay: 72-h MTT proliferation assay, CH1DoxR; format: cell-based; details: Homo sapiens, read-out: IC50 Cell line CH1DoxR
# Excerpt: as §1
# HCT116 = assay: 72-h MTT proliferation assay, HCT116; format: cell-based; details: Homo sapiens, HCT-116, read-out: IC50 Cell line HCT116
# Excerpt: as §1
# CH1 = assay: 72-h MTT proliferation assay, CH1; format: cell-based; details: Homo sapiens, read-out: IC50 Cell line CH1
# Excerpt: as §1
# A2780 = assay: 72-h MTT proliferation assay, A2780; format: cell-based; details: Homo sapiens, read-out: IC50 Cell line A2780
# Excerpt: as §1
# HT29 = assay: 72-h MTT proliferation assay, HT29; format: cell-based; details: Homo sapiens, HT-29, read-out: IC50 Cell line HT29
# Excerpt: as §1
# KM12 = assay: 72-h MTT proliferation assay, KM12; format: cell-based; details: Homo sapiens, read-out: IC50 Cell line KM12
# Excerpt: as §1
# [2] = system: seven different human tumour cell lines: A2780, A278CisF, CH1, CH1DoxR, HCT116, HT29 and KM12; assay: 72-h MTT proliferation assay, average over seven cell lines; format: cell-based; details: read-out: IC50 Cell line Average
# Excerpt: Selected compounds from the above examples were subjected to a standard cellular proliferation assay using seven different human tumour cell lines: A2780, A278CisF, CH1, CH1DoxR, HCT116, HT29 and KM12.
# CDK2/cyclin E = target: T1, CDK2/cyclin E (Homo sapiens, UniProt P24941); assay: CDK2/cyclin E kinase assay (GST-Rb phosphorylation); format: biochemical; details: Table 1
# T1 construct: His; made in house; host or cells: Sf9 insect cells (baculovirus)
# Description: (§2) Assays for CDK2/cyclin E kinase, CDK1/cyclin B and CDK4/cyclin D1 may be carried out by monitoring phosphorylation of GST-Rb in an appropriate system. […] The phosphorylation reaction mixture (total volume 40 μl) consisted of 50 mM HEPES pH 7.4, 20 mM MgCl2, 5 mM EGTA, 2 mM DTT, 20 mM β-glycerophosphate, 2 mM NaF, 1 mM Na3VO4, Protease Inhibitors Cocktail (Sigma, see above), BSA 0.5 mg/ml, 1 μg purified enzyme complex, 10 μl of GST-Rb-Sepharose-beads, 100 μM ATP, 0.2 μCi ^32P-ATP. The reaction is carried out for 30 min at 30° C. at constant shaking. At the end of this period 100 μl of 50 mM HEPES, pH 7.4 and 1 mM ATP is added to each well and the total volume transferred onto GFC filtered plate. The plate is washed 5 times with 200 μl of 50 mM HEPES, pH 7.4 and 1 mM ATP. To each well was added 50 μl scintillant liquid and the radioactivity of the samples is measured on Scintilation counter (Topcount, HP). The IC50 values of different peptides were calculated using GraFit software.
# For use in said assay CDK2 may be obtained from available sources or produced by recombinant methods as described His-tagged CDK2/Cyclin E and CDK1/Cyclin B may be co-expressed in Sf 9 insect cells infected with the appropriate baculovirus constructs. The cells are harvested two days after infection by low speed centrifugation and the proteins purified from the insect cell pellets by Metal-chelate chromatography. Briefly, the insect cell pellet is lysed in Buffer A (10 mM Tris-HCl, pH 8.0, 150 mM NaCl, 0.02% NP40 and 5 mM, β-marcaptoethanol, 1 mM NaF. 1 mM Na3VO4 and Protease Inhibitors Coctail (Sigma) containing AEBSF, pepstatin A, E 64, bestatin, leupeptin) by sonication. The soluble fraction is cleared by centrifugation and loaded onto Ni-NTA-Agarose (Quiagen). Non bound proteins were washed off with 300 mM NaCl, 5-15 mM Imidazole in Buffer A and the bound proteins eluted with 250 mM Imidazole in Buffer A. The purified proteins are extensively dialyzed against Storage buffer (20 mM HEPES pH 7.4, 50 mM NaCl, 2 mM DTT, 1 mM EDTA, 1 mM EGTA, 0.02% NP40, 10% v/v Glycerol) aliquoted and stored at −70° C. PKC-α—6×His may be purified the same way but using different buffers—50 mM NaH2PO4, pH 8.0 and 0.05% Triton X-100 instead of Tris and NP40 respectively.
# [3] = target: T2, cyclic AMP-dependent kinase (PKA) catalytic subunit (Homo sapiens, UniProt P17612); assay: PKA kinase assay (Kemptide phosphorylation); format: biochemical; details: Table 2; read-out: Kinase inhibition PKA IC50
# T2 construct: purchased Calbiochem 539487
# Description: The reaction mixture (total volume 50 μl) consisted of 20 mM MOPS, pH 7.2, 25 mM β-glycerophosphate, 5 mM EGTA, 1 mM DTT, 1 mM Na3VO4, 10 mM MgCl2, 100 μM ATP, 0.2 μCi [γ-^32P]-ATP.
# A549, HT29, Saos-2 = assay: In vitro anti-proliferative activity, 72-h MTT, A549, HT29, Saos-2; format: cell-based; details: read-out: In vitro anti-proliferative activity (72-h MTT IC50), Cell lines: A549, HT29, Saos-2
# mouse ERK-2 = target: T3, mouse ERK-2 (Mus musculus, UniProt P63085); assay: ERK-2 kinase assay (MBP phosphorylation); format: biochemical; details: Table 2; read-out: Kinase inhibition ERK2 IC50
# T3 construct: purchased Upstate Biotechnologies
# T3 sequence (P63085 whole entry): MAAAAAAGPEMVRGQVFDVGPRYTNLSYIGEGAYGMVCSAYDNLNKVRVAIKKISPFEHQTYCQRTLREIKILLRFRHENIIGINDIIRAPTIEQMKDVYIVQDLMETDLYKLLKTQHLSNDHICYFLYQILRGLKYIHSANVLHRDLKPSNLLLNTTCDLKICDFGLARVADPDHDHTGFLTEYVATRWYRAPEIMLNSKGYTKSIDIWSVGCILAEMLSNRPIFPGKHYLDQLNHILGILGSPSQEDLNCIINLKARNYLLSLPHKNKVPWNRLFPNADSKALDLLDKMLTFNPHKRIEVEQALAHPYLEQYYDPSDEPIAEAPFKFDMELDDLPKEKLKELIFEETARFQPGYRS
# Description: ERK-2 kinase activity was measured by the incorporation of radioactive phosphate into myelin basic protein (MBP), catalysed by purified mouse ERK-2 (Upstate Biotechnologies). The reaction mixture (total volume 50 μL) consisted of 20 mM MOPS, pH 7.0,25 mM β-glycerophosphate, 5 mM EGTA, 1 mM DTT, 1 mM Na3VO4, 10 mM MgCl2, 100 μM ATP, 0.2 μCi [γ-^32P]-ATP.
# CDK7/cyclin H = CDK7/cyclin H (Homo sapiens, UniProt P50613); assay: CDK7/cyclin H kinase inhibition; format: biochemical; details: Table 2
# CDK7/cyclin H, sequence (P50613 whole entry, species assumed): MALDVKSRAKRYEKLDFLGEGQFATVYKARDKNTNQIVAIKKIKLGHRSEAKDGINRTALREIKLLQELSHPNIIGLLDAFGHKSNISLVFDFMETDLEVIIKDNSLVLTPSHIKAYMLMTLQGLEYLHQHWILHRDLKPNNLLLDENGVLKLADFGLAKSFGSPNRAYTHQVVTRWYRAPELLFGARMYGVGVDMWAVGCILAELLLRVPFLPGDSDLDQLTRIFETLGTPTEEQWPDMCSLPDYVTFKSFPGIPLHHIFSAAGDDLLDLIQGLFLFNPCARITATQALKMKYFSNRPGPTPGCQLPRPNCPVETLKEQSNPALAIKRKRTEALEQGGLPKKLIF
# CDK7/cyclin H, sequence (P51946 whole entry partner, species assumed): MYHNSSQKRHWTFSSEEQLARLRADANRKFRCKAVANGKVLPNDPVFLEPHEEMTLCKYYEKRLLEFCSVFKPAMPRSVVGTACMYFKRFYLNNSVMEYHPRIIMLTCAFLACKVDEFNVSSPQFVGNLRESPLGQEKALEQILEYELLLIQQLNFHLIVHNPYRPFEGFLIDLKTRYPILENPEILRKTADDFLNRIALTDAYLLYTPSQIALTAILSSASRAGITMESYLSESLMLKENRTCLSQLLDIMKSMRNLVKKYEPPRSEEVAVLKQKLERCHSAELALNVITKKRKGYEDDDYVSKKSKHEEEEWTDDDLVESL
# CDK4/cyclin D1 = CDK4/cyclin D1 (Homo sapiens, UniProt P11802); assay: CDK4/cyclin D1 kinase assay (GST-Rb phosphorylation); format: biochemical; details: Table 2; read-out: Kinase inhibition CDK4/cyclin D1 IC50
# CDK4/cyclin D1, sequence (P11802 whole entry, species assumed): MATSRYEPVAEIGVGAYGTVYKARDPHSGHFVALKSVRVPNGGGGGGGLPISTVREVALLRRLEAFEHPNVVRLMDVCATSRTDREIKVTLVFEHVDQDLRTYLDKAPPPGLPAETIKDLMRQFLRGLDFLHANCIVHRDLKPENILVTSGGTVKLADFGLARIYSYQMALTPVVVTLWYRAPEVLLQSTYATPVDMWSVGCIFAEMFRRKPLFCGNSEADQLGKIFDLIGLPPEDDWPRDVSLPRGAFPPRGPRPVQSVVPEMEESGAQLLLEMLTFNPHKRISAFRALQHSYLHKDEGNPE
# CDK4/cyclin D1, sequence (P24385 whole entry partner, species assumed): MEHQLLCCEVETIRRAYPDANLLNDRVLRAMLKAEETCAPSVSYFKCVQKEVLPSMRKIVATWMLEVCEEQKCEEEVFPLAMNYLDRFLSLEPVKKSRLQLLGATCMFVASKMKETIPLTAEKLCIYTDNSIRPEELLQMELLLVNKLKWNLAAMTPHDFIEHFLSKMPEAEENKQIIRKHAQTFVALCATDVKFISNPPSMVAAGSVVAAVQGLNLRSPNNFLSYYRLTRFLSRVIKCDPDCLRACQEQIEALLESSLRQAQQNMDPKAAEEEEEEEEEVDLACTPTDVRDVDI
# Description: as §2
# in vivo = details: mouse
smiles,measurement,setting,value
"CC[C@H](Nc1nc(NCc2ccccc2)c2ncn(C(C)C)c2n1)[C@@H](C)O [Example 7 (2R,3S), (2R,3S)-3-(6-Benylamino-9-isopropyl-9H-purin-2-ylamino)-pentan-2-ol]",PK remark: carbinol metabolism,[1],Blocked carbinol metabolism
same,IC50,A2780 CisR,3.4 µM
same,IC50,CH1DoxR,1.3 µM
same,IC50,HCT116,1.5 µM
same,IC50,CH1,1.8 µM
same,IC50,A2780,3.3 µM
same,IC50,HT29,5 µM
same,IC50,KM12,1.9 µM
"CC[C@H](CO)Nc1nc(Nc2cccc([N+](=O)[O-])c2)c2ncn(C(C)C)c2n1 [Example 4, (R)-2-[9-Isopropyl-6-(3-nitro-phenlamino)-9H-purin-2-ylamino]-butan-1-ol]",IC50,A2780 CisR,1.7 µM
same,IC50,CH1DoxR,0.56 µM
same,IC50,HCT116,1.2 µM
same,IC50,CH1,1.1 µM
same,IC50,A2780,0.245 µM
same,IC50,[2],1.1 µM
same,IC50,HT29,2.1 µM
same,IC50,CDK2/cyclin E,0.028 ± 0.01 µM
same,IC50,KM12,0.76 µM
"CC[C@@H](Nc1nc(NCc2ccccc2)c2ncn(C(C)C)c2n1)C(C)O (mixture of isomers) [7 (2RS,3R), (2RS, 3R)-3-(6-Benzylamino-9-isopropyl-9H-purin-2-ylamino)-pentan-2-ol]",PK remark: carbinol metabolism,[1],Blocked carbinol metabolism
same,IC50,A2780 CisR,15 µM
same,IC50,CH1DoxR,12 µM
same,IC50,HCT116,12 µM
same,IC50,CH1,17 µM
same,IC50,A2780,6.6 µM
same,IC50,[2],13.8 µM
same,IC50,HT29,15 µM
same,IC50,KM12,19 µM
"CC[C@H](Nc1nc(NCc2ccccc2)c2ncn(C(C)C)c2n1)C(O)C(C)(C)C (mixture of isomers) [Example 14, (3RS,4S)-4-(6-Benzylamino-9-isopropyl-9H-purin-2-ylamino)-2,2-dimethyl-hexan-3-ol]",IC50,[3],> 200 µM
same,IC50,"A549, HT29, Saos-2",22 µM
same,IC50,mouse ERK-2,> 200 µM
same,IC50,CDK7/cyclin H,4.3 µM
same,IC50,CDK4/cyclin D1,60 µM
"CC[C@H](Nc1nc(NCc2ccccc2)c2ncn(C(C)C)c2n1)C(C)(C)O [Example 16, (S)-3-(6-Benzylamino-9-isopropyl-9H-purin-2-ylamino)-2 methyl-pentan-2-ol]",IC50,[3],≥ 200 µM
same,IC50,"A549, HT29, Saos-2",10 µM
same,IC50,CDK7/cyclin H,2 µM
same,IC50,CDK4/cyclin D1,8.5 µM
"COc1ccc(CNc2nc(N3CCCC(O)C3)nc3c2ncn3C2CCCC2)cc1OC (stereo not drawn) [Example 2, 1-[9-Cyclopentyl-6-(3.4-dimethoxy-benzylamino)-9H-purin-2-yl]piperidin-3-ol]",IC50,A2780 CisR,14 µM
same,IC50,CH1DoxR,2.4 µM
same,AUC(0-inf),in vivo,19500 ng·h/mL
same,half-life,in vivo,4.2 h
same,IC50,HCT116,6.1 µM
same,IC50,CH1,0.94 µM
same,IC50,A2780,0.078 µM
same,IC50,[2],4.9 µM
same,IC50,HT29,4.4 µM
same,IC50,CDK2/cyclin E,1.84 ± 0.31 µM
same,IC50,KM12,6.4 µM
CCC(O)[C@H](CC)Nc1nc(NCc2ccccc2)c2ncn(C(C)C)c2n1 (stereo partly drawn) [Example 10],IC50,[3],> 200 µM
same,IC50,"A549, HT29, Saos-2",20 µM
"CC[C@@H](Nc1nc(NCc2ccccc2)c2ncn(C(C)C)c2n1)C(O)C(C)(C)C (mixture of isomers) [Example 13, (3RS,4R)-4-(6-Benzylamino-9-isopropyl-9H-purin-2-ylamino)-2,2-dimethyl-hexan-3-ol]",IC50,[3],87 µM
same,IC50,"A549, HT29, Saos-2",18 µM
same,IC50,mouse ERK-2,> 200 µM
same,IC50,CDK7/cyclin H,3.7 µM
same,IC50,CDK4/cyclin D1,> 200 µM
CCC(Nc1nc(NCc2ccccc2)c2ncn(C(C)C)c2n1)C(C)O (stereo not drawn) [Example 7],IC50,[3],> 50 µM
same,IC50,mouse ERK-2,> 50 µM and 43 µM and 29 µM
"CC[C@@H](Nc1nc(NCc2ccccc2)c2ncn(C(C)C)c2n1)C(O)C(C)C (mixture of isomers) [Example 11, (3RS,4R)-4-(6-Benzylamino-9-isopropyl-9H-purin-2-ylamino)-2-methyl-hexan-3-ol]",IC50,[3],92 µM
same,IC50,"A549, HT29, Saos-2",11 µM
same,IC50,mouse ERK-2,> 200 µM
same,IC50,CDK7/cyclin H,4.4 µM
same,IC50,CDK4/cyclin D1,28 µM
"CC(C)[C@H](CO)Nc1nc(Nc2cccc([N+](=O)[O-])c2)c2ncn(C(C)C)c2n1 [Example 3, (R)-2-[9-Isopropyl-6-(3-nitro-phenylamino)-9H-purin-2-ylamino]-3-methyl-butan-1-ol]",IC50,A2780 CisR,2.85 µM
same,IC50,CH1DoxR,1.8 µM
same,IC50,HCT116,2.45 µM
same,IC50,CH1,2.3 µM
same,IC50,A2780,1.1 µM
same,IC50,[2],2.3 µM
same,IC50,HT29,4.3 µM
same,IC50,CDK2/cyclin E,0.33 ± 0.45 µM
same,IC50,KM12,1.05 µM
"OC1CCCN(c2nc(Nc3ccc4c(c3)CCC4)c3ncn(C4CCCC4)c3n2)C1 (stereo not drawn) [Example 1, 1-[9-Cyclopentyl-6-(indan-5-ylamino)-9H-purin-2-yl]-piperidin-3-ol]",IC50,A2780 CisR,1.1 µM
same,IC50,CH1DoxR,1.7 µM
same,AUC(0-inf),in vivo,62500 ng·h/mL
same,half-life,in vivo,5.5 h
same,IC50,HCT116,5.7 µM
same,IC50,CH1,1.5 µM
same,IC50,A2780,2.2 µM
same,IC50,[2],2 µM
same,IC50,HT29,1.8 µM
same,IC50,CDK2/cyclin E,0.58 ± 0.33 µM
same,IC50,KM12,0.34 µM
"CC[C@@H](Nc1nc(NCc2ccccc2)c2ncn(C(C)C)c2n1)[C@H](C)O [Example 7 (2S,3R), (2S, 3R)-3-(6-Benzylamino-9-isopropyl-9H-purin-2-ylamino)-pentan-2-ol]",PK remark: carbinol metabolism,[1],Blocked carbinol metabolism
same,IC50,A2780 CisR,3.8 µM
same,IC50,CH1DoxR,4.6 µM
same,IC50,HCT116,5.4 µM
same,IC50,CH1,5 µM
same,IC50,A2780,6.4 µM
same,IC50,[2],6.9 µM
same,IC50,KM12,5.4 µM
CC[C@H](Nc1nc(NCc2ccccc2)c2ncn(C(C)C)c2n1)C(O)C(C)C (stereo partly drawn) [Example 12],IC50,[3],83 µM
same,IC50,mouse ERK-2,88 µM
CC[C@@H](Nc1nc(NCc2ccccc2)c2ncn(C(C)C)c2n1)C(C)(C)O [Example 15],IC50,[3],191 µM
same,IC50,"A549, HT29, Saos-2",15 µM
same,IC50,CDK7/cyclin H,3.7 µM
same,IC50,CDK4/cyclin D1,12 µM
"CCC(O)[C@@H](CC)Nc1nc(NCc2ccccc2)c2ncn(C(C)C)c2n1 (mixture of isomers) [Example 9, (3RS,4R)-4-(6-Benzylamino-9-isopropyl-9H-purin-2-ylamino)-hexan-3-ol]",IC50,[3],139 µM
same,IC50,"A549, HT29, Saos-2",11 µM
same,IC50,mouse ERK-2,103 µM
same,IC50,CDK7/cyclin H,1.2 µM
same,IC50,CDK4/cyclin D1,34 µM
